Laboratory results published in patent publication US7083982B2, “Helium-neon excitable reticulocyte dyes derivable from halolepidines” (Abbott Laboratories, priority 1996, dated 2006).

Legend:
[1] = Absorption maximum of the dye; format: physicochemical; details: for absorption maximum in methanol: in methanol solution
Procedure: The following table sets forth the absorption maximum in nanometers for several dyes suitable for use in this invention.
To the activated 3-ethyl-2-methylbenzothiazolium derivative obtained above (4.5 mg) was added the 7-chloro-1-methyllepidinium salt obtained above (3.8 mg) in chloroform (250 μL) to form a mixture. Then triethylamine (50 μL) was added to the mixture. The resulting mixture was stirred at reflux for 30 minutes, during which time a dark blue solution was obtained. Diethyl ether was added to the solution and the resultant suspension was centrifuged. The supernatant was discarded and the precipitate resuspended in diethyl ether and centrifuged (2 times). The dark powder absorbed maximally at 638 nm in methanol solution.

RNA = experiment: Fluorescence of dye with RNA in CD4000 Retic Buffer, flow cytometer with helium-neon laser
Procedure: (§1) Fluorescence was determined by dissolving the dye in a buffer (“CD4000 Retic Buffer”) at neutral pH and at a final concentration of 0.5 μg/ml of test solution. The “CD4000 Retic Buffer” contained the following ingredients in the amounts indicated: The tests were run in a flow cytometer with a helium-neon laser light source. The helium-neon laser provided light at a wavelength of 630 nm. The optical system was a conventional optical system.

[2] = Fluorescence of dye only in CD4000 Retic Buffer, flow cytometer with helium-neon laser; format: physicochemical
Procedure: as §1

DNA = experiment: Fluorescence of dye with DNA in CD4000 Retic Buffer, flow cytometer with helium-neon laser
Procedure: as §1

[3] = fluorescence relative to dye only intensity 1.0

| Structure (SMILES) | Absorption maximum (nm) [1] | absorption maximum in methanol [1] | also measured |
| --- | --- | --- | --- |
| CC[n+]1c(/C=C/C=C2\C=CN(C)c3cc(Cl)ccc32)sc2ccccc21 [Dye 7] | 638 nm | 638 nm | Bandwidth with RNA (RNA; emission, with RNA): 36; Enhancement with RNA (RNA; [3]): 39.1; Emission wavelength with RNA (nm) (RNA; with RNA, 0.5 μg/ml, neutral pH, 630 nm laser): 671.2 nm; Emission wavelength - dye only (nm) ([2]; 0.5 μg/ml, neutral pH, 630 nm laser): 655.6 nm; Bandwidth ([2]; emission): 45; Bandwidth with DNA (DNA; emission, with DNA): 35; Enhancement with DNA (DNA; [3]): 50.4; Emission wavelength with DNA (nm) (DNA; with DNA, 0.5 μg/ml, neutral pH, 630 nm laser): 661.8 nm |
| CN1C=C/C(=C\C=C\c2oc3ccc4ccccc4c3[n+]2C)c2ccc(Cl)cc21 [Dye 9] | 624 nm | 624 nm |  |
| CN1C=C/C(=C\C=C\c2sc3ccccc3[n+]2C)c2ccc(Br)cc21 [Dye 5] | 638 nm |  |  |
| CN1C=C/C(=C\C=C\c2sc3ccccc3[n+]2C)c2ccc(F)cc21 [Dye 2] | 628 nm |  |  |
| CN1C=C/C(=C\C=C\c2sc3ccccc3[n+]2C)c2ccc(Cl)cc21 [Dye 8] |  | 638 nm |  |
| CN1C=C/C(=C\C=C\C2=[N+](C)c3ccc4ccccc4c3C2(C)C)c2ccc(Cl)cc21 [Dye 6] |  | 623 nm |  |
